In brackets after ≈: the same amount, converted by molar mass. Several values for one entry are separate records, joined by “and”; a condition that tells them apart may be missing. Equal entries are not always repeated. Each block holds one compound with its values, some of them ahead of it.
Tests used:
Test in all cases: ≥ marks a high value that may be exact or a test limit, other limits are often not marked, values filed in µg/mL are converted to µM
[1] = system: Bacillus subtilis
[2] = system: Escherichia coli W160-37
[3] = system: Micrococcus luteus MT166
[4] = system: Pseudomonas putida NCIM 2102
[5] = system: Saccharomyces cerevisiae ATCC 8530
[6] = system: Staphylococcus aureus ATCC 8530
[7] = system: Acinetobacter baumannii ATCC 17987
[8] = system: Acinetobacter baumannii
[9] = system: Burkholderia cenocepacia 4813
[10] = system: Cutibacterium acnes C2
[11] = system: Cutibacterium acnes PJI2
[12] = system: Enterobacter cloacae 218R
[13] = system: Enterococcus faecalis ATCC 19433
[14] = system: Escherichia coli HB101
[15] = system: Escherichia coli O157
[16] = system: Klebsiella pneumoniae 1549216
[17] = system: Klebsiella pneumoniae ATCC 13883
[18] = system: Klebsiella pneumoniae KPLN649
[19] = system: Mycobacterium tuberculosis H37Rv
[20] = system: Pseudomonas aeruginosa PA14
[21] = system: Pseudomonas aeruginosa PAO1
[22] = system: Pseudomonas aeruginosa
[23] = system: Salmonella enterica subsp. enterica serovar Typhimurium ATCC 14028s
[24] = system: Salmonella typhimurium C587
[25] = system: Staphylococcus aureus ATCC 25923
[26] = system: Candida albicans ATCC 90028
[27] = system: Escherichia coli
[28] = system: Listeria innocua
[29] = system: Micrococcus luteus
[30] = system: Pseudomonas aeruginosa ATCC 9027
[31] = system: Salmonella enterica subsp. enterica serovar Enteritidis
[32] = system: Staphylococcus aureus USA 100
[33] = system: Staphylococcus aureus USA 300
[34] = system: Escherichia coli ATCC 25922
[35] = system: Escherichia coli ATCC 54127
[36] = system: Pseudomonas aeruginosa ATCC 27853
[37] = system: Pseudomonas aeruginosa CIP A22
[38] = system: Cupriavidus necator H16
[39] = system: Escherichia coli BL21(DE3)
[40] = system: Escherichia coli JM109
[41] = system: Pseudomonas putida GPp104
[42] = system: Enterococcus faecalis ATCC 29212
[43] = system: Staphylococcus aureus ATCC 29213
[44] = system: Staphylococcus epidermidis PIA 8400
[45] = system: Bacillus subtilis VKM B-886
[46] = system: Candida albicans SC5314
[47] = system: Candida krusei IFM 56881
[48] = system: Candida parapsilosis ATCC 22019
[49] = system: Cryptococcus neoformans var. grubii H99
[50] = system: Escherichia coli ML-35p
[51] = system: Klebsiella pneumoniae CI 287
[52] = system: Micrococcus luteus VKM B-1314
[53] = system: Staphylococcus aureus 209P

- MIC [7]: ≥ 83.3 µM
- MIC [8]: ≥ 83.3 µM
- MIC [9]: ≥ 167 µM
- MIC [10]: ≥ 41.6 µM
- MIC [11]: ≥ 41.6 µM
- MIC [12]: ≥ 41.6 µM
- MIC [13]: ≥ 167 µM
- MIC [14]: 20.8 µM (≈ 32 µg/mL)
- MIC [15]: 20.8 µM (≈ 32 µg/mL)
- MIC [16]: ≥ 41.6 µM
- MIC [17]: 5.21 µM (≈ 7.99 µg/mL)
- MIC [18]: 20.8 µM (≈ 32 µg/mL)
- MIC [19]: 10.4 µM (≈ 16 µg/mL)
- MIC [20]: ≥ 41.6 µM and 20.8 µM
- MIC [21]: 41.6 µM (≈ 64 µg/mL)
- MIC [22]: 12.4 µM (≈ 19 µg/mL)
- MIC [23]: ≥ 41.6 µM
- MIC [24]: ≥ 41.6 µM
- MIC [25]: 167 µM (≈ 256 µg/mL)
SMILES: CC[C@H](C)[C@H](NC(=O)[C@H](CCCN=C(N)N)NC(=O)[C@@H](NC(=O)[C@H](C)NC(=O)[C@@H](NC(=O)[C@@H](NC(=O)[C@H](CC(C)C)NC(=O)[C@H](CCCN=C(N)N)NC(=O)[C@@H](N)C(C)C)[C@@H](C)CC)C(C)C)C(C)C)C(=O)N[C@@H](Cc1c[nH]c2ccccc12)C(=O)N[C@@H](CCCN=C(N)N)C(=O)N[C@@H](CCCN=C(N)N)C(N)=O [VRLIVAVRIWRR]

- MIC [26]: ≥ 100 µM
- MIC [27]: 4 µM (≈ 1.9 µg/mL)
- MIC [28]: 1 µM (≈ 0.475 µg/mL)
- MIC [29]: 4 µM (≈ 1.9 µg/mL)
- MIC [30]: > 100 µM
- MIC [31]: 1 µM (≈ 0.475 µg/mL)
- MIC [32]: ≥ 100 µM
- MIC [33]: ≥ 100 µM
SMILES: NC(N)=NCCC[C@H](N)C(=O)N[C@@H](Cc1ccc(O)cc1)C(=O)N[C@@H](Cc1cnc[nH]1)C(=O)O [RYH]

- MIC [38]: ≥ 50 µM
- MIC [39]: 1.25 µM (≈ 2.72 µg/mL)
- MIC [40]: 12.5 µM (≈ 27.2 µg/mL)
- MIC [41]: 25 µM (≈ 54.4 µg/mL)
SMILES: CC[C@H](C)[C@H](NC(=O)[C@H](Cc1ccc(O)cc1)NC(=O)[C@@H](NC(=O)[C@@H]1CCCN1C(=O)[C@H](CCCN=C(N)N)NC(=O)[C@H](CCCN=C(N)N)NC(=O)[C@@H](NC(=O)[C@@H](N)C(C)C)C(C)C)C(C)C)C(=O)N1CCC[C@H]1C(=O)N[C@@H](CCC(N)=O)C(=O)N1CCC[C@H]1C(=O)N[C@@H](CCCN=C(N)N)C(=O)N1CCC[C@H]1C(=O)N1CCC[C@H]1C(=O)N[C@@H](Cc1cnc[nH]1)C(=O)N1CCC[C@H]1C(=O)N[C@@H](CCCN=C(N)N)C(=O)N[C@@H](CC(C)C)C(=O)O [VVRRPVYIPQPRPPHPRL]

- MIC [42]: 37.5 µM and 74.9 µM
- MIC [34]: 9.74 µM (≈ 13 µg/mL)
- MIC [36]: 18.7 µM and 9.74 µM
- MIC [43]: 9.74 µM (≈ 13 µg/mL)
- MIC [44]: 4.5 µM and 9.74 µM
SMILES: CC(C)C[C@H](NC(=O)[C@H](CCCN=C(N)N)NC(=O)[C@@H](N)Cc1ccc(O)cc1)C(=O)N[C@@H](CCCN=C(N)N)C(=O)N[C@H](C(=O)N[C@@H](CCCCN)C(=O)N[C@@H](Cc1c[nH]c2ccccc12)C(=O)N[C@@H](CCCCN)C(=O)N[C@@H](Cc1c[nH]c2ccccc12)C(N)=O)C(C)C [YRLRVKWKW]

More lines, now with the values behind:

SMILES: CC[C@H](C)[C@@H]1NC(=O)[C@@H]2CCCN2C(=O)[C@H](CC(C)C)NC(=O)[C@@H]2CCCN2C(=O)[C@H]([C@@H](C)CC)NC(=O)[C@H](C)NC(=O)[C@H](Cc2ccc(O)cc2)NC(=O)[C@@H](NC(=O)[C@@H](NC(=O)[C@@H](N)CCCN=C(N)N)C(C)C)CSSC[C@@H](C(=O)N[C@@H](Cc2ccc(O)cc2)C(N)=O)NC1=O [RVCYAIPLPICY]
- MIC [1]: 21.3 µM (≈ 29.9 µg/mL)
- MIC [2]: 28.4 µM (≈ 39.9 µg/mL)
- MIC [3]: 21.3 µM (≈ 29.9 µg/mL)
- MIC [4]: 28.4 µM (≈ 39.9 µg/mL)
- MIC [5]: ≥ 56.7 µM
- MIC [6]: 21.3 µM (≈ 29.9 µg/mL)

SMILES: CC[C@H](C)[C@H](NC(=O)CNC(=O)[C@H](CCCCN)NC(=O)[C@H](CC(C)C)NC(=O)[C@H](CCSC)NC(=O)[C@H](CC(N)=O)NC(=O)[C@H](CCCCN)NC(=O)[C@H](Cc1c[nH]c2ccccc12)NC(=O)[C@H](CC(C)C)NC(=O)[C@H](C)N)C(=O)NCC(=O)N[C@@H](CCCCN)C(=O)N[C@@H](CC(C)C)C(=O)N[C@@H](C)C(=O)NCC(=O)N[C@@H](CCC(N)=O)C(=O)N[C@@H](C)C(=O)N[C@@H](C)C(=O)N[C@@H](CC(C)C)C(=O)NCC(=O)N[C@@H](C)C(=O)N[C@H](C(=O)N[C@@H](CCCCN)C(=O)N[C@H](C(=O)N[C@@H](CC(C)C)C(=O)N[C@H](C(=O)NCC(=O)N[C@@H](C)C(=O)O)C(C)C)[C@@H](C)O)C(C)C [ALWKNMLKGIGKLAGQAALGAVKTLVGA]
- MIC [34]: 2.6 µM (≈ 7.23 µg/mL)
- MIC [35]: 2.3 µM (≈ 6.39 µg/mL)
- MIC [36]: 5 µM (≈ 13.9 µg/mL)
- MIC [37]: 2.3 µM (≈ 6.39 µg/mL)
- MIC [25]: 1.3 µM (≈ 3.61 µg/mL)

SMILES: CC[C@H](C)[C@@H]1NC(=O)CNC(=O)[C@H](CCCN=C(N)N)NC(=O)[C@H](Cc2ccc(O)cc2)NC(=O)[C@@H]2CSSC[C@H](NC1=O)C(=O)N[C@@H](Cc1ccc(O)cc1)C(=O)N[C@@H](CCCN=C(N)N)C(=O)N[C@@H](CCCCN)C(=O)N[C@H](C(=O)N[C@@H](CCCN=C(N)N)C(=O)O)CSSC[C@H](NC(=O)[C@H](Cc1c[nH]c3ccccc13)NC(=O)[C@@H](N)CCCCN)C(=O)N[C@@H](Cc1ccccc1)C(=O)N[C@@H](CCCN=C(N)N)C(=O)N[C@@H](C(C)C)C(=O)N2 [KWCFRVCYRGICYRKCR]
- MIC [45]: 1 µM (≈ 2.24 µg/mL)
- MIC [46]: 14.3 µM (≈ 31.9 µg/mL)
- MIC [47]: 28.6 µM (≈ 63.9 µg/mL)
- MIC [48]: 7.14 µM (≈ 16 µg/mL)
- MIC [49]: 1.79 µM (≈ 4 µg/mL)
- MIC [50]: 0.062 µM (≈ 0.139 µg/mL)
- MIC [51]: 0.5 µM (≈ 1.12 µg/mL)
- MIC [52]: 2 µM (≈ 4.47 µg/mL)
- MIC [21]: 0.5 µM (≈ 1.12 µg/mL)
- MIC [53]: 0.5 µM (≈ 1.12 µg/mL)
- MIC [43]: 16 µM (≈ 35.8 µg/mL)

From DBAASP
